Blank lines part the entries; values can stand above or below the molecule they belong to.
Assays:
UGT91D-like3 = assay: Assay for enzyme activity of UGT91D-like3 on glycosyl acceptor substrates, LC-MS analysis; assay type: biochemical, stevia; settings: for product formation on reaction of the glycosyl acceptor substrate with UGT91D-like3: 2 mM UDP-glucose, 0.1 mM glycosyl acceptor substrate, potassium phosphate buffer pH 7.0, 30° C., an hour, LC-MS
Protocol: (§1) Standard conditions for the enzyme reaction were as follows: A reaction solution (2 mM UDP-glucose, 0.1 mM glycosyl acceptor substrate, 100 mM potassium phosphate buffer (pH 7.0) and 25 μl of purified UGT91D-like3 enzyme solution) was prepared in distilled water to become 50 μl, and reacted at 30° C. for an hour. LC-MS analysis was performed for 5 μl of the enzyme reaction solution under the following conditions.
Column: Waters Sunfire C18 3.5 um […]
Moving phase: A: MilliQ Water (+0.05% formic acid), B: MeCN
Gradient: linear density gradient from 15% to 55% in B density (20 mins.)
Steviolmonoside (peak B) was prepared by reacting UGT85C2 and steviol (peak A), and the steviolmonoside was reacted with UGT91D-like3. […] This peak was identified as steviolbioside based on the retention time and mass fragmentation pattern. […] It was confirmed that UGT91D-like3 had the activity of forming steviolbioside (peak C) by glucosylation of steviolmonoside (peak B).

[1] = Comparison in relative enzyme activity between recombinant UGT proteins, rubusoside as substrate; assay type: biochemical, stevia; settings: for relative enzyme activity (amount of stevioside produced divided by amount of protein): glucosylation activity of UGT91D2e made 100%
Protocol: as §1
As given below, the Escherichia coli expression construct of UGT91D2e was prepared, and the enzyme activities of UGT91D2e and UGT91D-like3 were evaluated by the same manner as in EXAMPLES 3 and 4.
The enzyme activities were compared between the purified proteins of UGT91D-like3 and UGT91D2e expressed in Escherichia coli. Using rubusoside as substrate, the comparison was made under the same enzyme reaction conditions and analysis conditions as in EXAMPLE 4. A relative enzyme activity was calculated by dividing the amount of stevioside produced by the amount of the protein provided for the reaction.

[2] = reported in the prior art (Non-Patent Document 2); cited from earlier work

Molecule: O=c1ccn([C@@H]2O[C@H](COP(=O)(O)OP(=O)(O)O[C@H]3OC[C@@H](O)[C@H](O)[C@H]3O)[C@@H](O)[C@H]2O)c(=O)[nH]1 [UDP-xylose]
use as sugar donor by UGT91D-like3 (UGT91D-like3): did not use UDP-xylose as the sugar donor

Molecule: C=C1C[C@@]23CC[C@H]4[C@@](C)(CCC[C@@]4(C)C(=O)O[C@@H]4O[C@H](CO)[C@@H](O)[C@H](O)[C@H]4O)[C@@H]2CC[C@]1(O[C@@H]1O[C@H](CO)[C@@H](O)[C@H](O)[C@H]1O)C3 [rubusoside]
product formation on reaction of the glycosyl acceptor substrate with UGT91D-like3 (UGT91D-like3): gave a new peak E

B1: UGT91D-like3: novel stevia glucosyltransferase, amino acid sequence SEQ ID NO: 2 (protein, listed as Stevia rebaudiana)
chain: MYNVTYHQNSKAMATSDSIVDDRKQLHVATFPWLAFGHILPYLQLSKLIAEKGHKVSFLSTTRNIQRLSSHISPLINVVQLTLPRVQELPEDAEATTDVHPEDIPYLKKASDGLQPEVTRFLEQHSPDWIIYDYTHYWLPSIAASLGISRAHFSVTTPWAIAYMGPSADAMINGSDGRTTVEDLTTPPKWFPFPTKVCWRKHDLARLVPYKAPGISDGYRMGLVLKGSDCLLSKCYHEFGTQWLPLLETLHQVPVVPVGLLPPEIPGDEKDETWVSIKKWLDGKQKGSVVYVALGSEVLVSQTEVVELALGLELSGLPFVWAYRKPKGPAKSDSVELPDGFVERTRDRGLVWTSWAPQLRILSHESVCGFLTHCGSGSIVEGLMFGHPLIMLPIFGDQPLNARLLEDKQVGIEIPRNEEDGCLTKESVARSLRSVVVEKEGEIYKANARELSKIYNDTKVEKEYVSQFVDYLEKNARAVAIDHES
relative enzyme activity per protein amount higher than UGT91D2e [1]: 67% | relative enzyme activity (amount of stevioside produced divided by amount of protein) [1]: 167%

B2: UGT91D1: known stevia glucosyltransferase, GENBANK Accession No. AY345980 (protein, UniProt Q6VAA8 1-485, looked up)
UDP-glycosyltransferase 91D1: MYNVTYHQNSKAMATSDSIVDDRKQLHVATFPWLAFGHILPFLQLSKLIAEKGHKVSFLSTTRNIQRLSSHISPLINVVQLTLPRVQELPEDAEATTDVHPEDIQYLKKAVDGLQPEVTRFLEQHSPDWIIYDFTHYWLPSIAASLGISRAYFCVITPWTIAYLAPSSDAMINDSDGRTTVEDLTTPPKWFPFPTKVCWRKHDLARMEPYEAPGISDGYRMGMVFKGSDCLLFKCYHEFGTQWLPLLETLHQVPVVPVGLLPPEIPGDEKDETWVSIKKWLDGKQKGSVVYVALGSEALVSQTEVVELALGLELSGLPFVWAYRKPKGPAKSDSVELPDGFVERTRDRGLVWTSWAPQLRILSHESVCGFLTHCGSGSIVEGLMFGHPLIMLPIFCDQPLNARLLEDKQVGIEIPRNEEDGCLTKESVARSLRSVVVENEGEIYKANARALSKIYNDTKVEKEYVSQFVDYLEKNARAVAIDHES
activity for steviolmonoside [2]: no activity

B3: UGT91D2e: prior art glucosyltransferase (Patent Document 3), SEQ ID NO: 32, short by the 12 amino acids (protein, listed as Stevia rebaudiana)
chain: MATSDSIVDDRKQLHVATFPWLAFGHILPYLQLSKLIAEKGHKVSFLSTTRNIQRLSSHISPLINVVQLTLPRVQELPEDAEATTDVHPEDIPYLKKASDGLQPEVTRFLEQHSPDWIIYDYTHYWLPSIAASLGISRAHFSVTTPWAIAYMGPSADAMINGSDGRTTVEDLTTPPKWFPFPTKVCWRKHDLARLVPYKAPGISDGYRMGLVLKGSDCLLSKCYHEFGTQWLPLLETLHQVPVVPVGLLPPEIPGDEKDETWVSIKKWLDGKQKGSVVYVALGSEVLVSQTEVVELALGLELSGLPFVWAYRKPKGPAKSDSVELPDGFVERTRDRGLVWTSWAPQLRILSHESVCGFLTHCGSGSIVEGLMFGHPLIMLPIFGDQPLNARLLEDKQVGIEIPRNEEDGCLTKESVARSLRSVVVEKEGEIYKANARELSKIYNDTKVEKEYVSQFVDYLEKNARAVAIDHES
relative enzyme activity (amount of stevioside produced divided by amount of protein) [1]: 100%

Now from value to molecule:

product formation on reaction of the glycosyl acceptor substrate with UGT91D-like3 (UGT91D-like3): no product was detected
Molecule: C=C1C[C@@]23CC[C@H]4[C@@](C)(CCC[C@@]4(C)C(=O)O)[C@@H]2CC[C@]1(O)C3 [steviol]

product formation on reaction of the glycosyl acceptor substrate with UGT91D-like3 (UGT91D-like3): any new product was not detected
Molecule: C=C1C[C@@]23CC[C@H]4[C@@](C)(CCC[C@@]4(C)C(=O)O)[C@@H]2CC[C@]1(O[C@@H]1O[C@H](CO)[C@@H](O)[C@H](O)[C@H]1O[C@@H]1O[C@H](CO)[C@@H](O)[C@H](O)[C@H]1O)C3 [steviolbioside]

product formation on reaction of the glycosyl acceptor substrate with UGT91D-like3 (UGT91D-like3): a new product (peak C) was detected
Molecule: C=C1C[C@@]23CC[C@H]4[C@@](C)(CCC[C@@]4(C)C(=O)O)[C@@H]2CC[C@]1(O[C@@H]1O[C@H](CO)[C@@H](O)[C@H](O)[C@H]1O)C3 [steviolmonoside]
